What was measured:
JEKO-1 = assay: MTT growth inhibition, JEKO-1; assay type: cell-based; conditions: JEKO-1 cells, 72 hrs
Description: (§1) The growth inhibitory effects of avicin D and oxetane derivative were measured using the MTT [3-(4,5-dimethylthiazol-2-yl)-2,5-diphenyl tetrazolium bromide] reduction assay as described in Haridas et al. (2001). Cells were cultured with varying concentrations of avicin D or oxetane in 96-well plates for 72 hrs at 37° C. At the end of 72 hrs, cells were stained with MTT for 2 hrs and then incubated with lysis buffer (20% SDS in 50% N,N-dimethylformamide) for another 6 hrs. Optical density at 570 nm was used as a measure of cell viability.
(§2) The cell lines 769P, A498, CAKI-1, and CAKI-2 are derived from primary human renal-cell cancers (RCC). A549 is a human lung adenocarcinoma epithelial cell line. B16F10 is a mouse melanoma cell line. BT474, BT 474 M1, BT549, MCF7, […], and ZR751 are breast cancer cell lines. CCRF-CEM, Jurkat, and MOLT4 are leukemia cell lines. HELA is cell line derived from cervical caner. HepG2 is a human hepatocellular liver carcinoma cell line. JeKo-1 is a mantle cell lymphoma (MCL) cell line. LnCAP is a cell line was established from a metastatic lesion of human prostatic adenocarcinoma. MM.1 and RPMI-8226 are human multiple myeloma cell lines. OVCAR3 and SKOV3 are ovarian cancer cell lines. Panc-1 is a pancreatic cancer cell line. PC3 is a prostate cancer cell line. Raji is a Burkitt's lymphoma cell line. RL is a non-Hodgkin's lymphoma cell line. […]

[1] = molecular target: glucocorticoid receptor (GR) (Homo sapiens, UniProt P04150); assay: GR Ser-211 phosphorylation (FIG. 4); assay type: cell-based; conditions: up to 16 hours
MINO = assay: MTT growth inhibition, MINO; assay type: cell-based; conditions: MINO cells, 72 hrs
Description: as §1, §2

Jurkat = assay: MTT growth inhibition, Jurkat; assay type: cell-based, human; conditions: Jurkat cells, 72 hrs (Table 5)
Description: as §1, §2

3T3-L1 cells = conditions: cited from earlier work
A498 = assay: MTT growth inhibition, A498; assay type: cell-based, human; conditions: A498 cells, 72 hrs
Description: as §1, §2

U266 = assay: MTT growth inhibition, U266; assay type: cell-based; conditions: U266 cells, 72 hrs
Description: as §1, §2

SKOV3 = assay: MTT growth inhibition, SKOV3; assay type: cell-based; conditions: SKOV3 cells, 72 hrs
Description: as §1, §2

[2] = test system: PKA-mediated CREB activity; conditions: cited from earlier work
MM1 = assay: MTT growth inhibition, MM1; assay type: cell-based, human; conditions: MM1 cells, 72 hrs
Description: as §1, §2

adiponectin = conditions: adipocytes; cited from earlier work
MCF7 = assay: MTT growth inhibition, MCF7; assay type: cell-based; conditions: MCF7 cells, 72 hrs
Description: as §1, §2

769P = assay: MTT growth inhibition, 769P; assay type: cell-based, human; conditions: 769P cells, 72 hrs
Description: as §1, §2

CAKI-1 = assay: MTT growth inhibition, CAKI-1; assay type: cell-based, human; conditions: CAKI-1 cells, 72 hrs
Description: as §1, §2

[3] = test system: HMLE cells expressing TWIST; assay: Mammosphere formation, cancer stem cell model; assay type: cell-based, human; conditions: 60 nM, added day 7 and every 7th day, seen on day 21
Description: Human mammary epithelial cells were transfected with transcription factor TWIST acquiring mesenchymal stem cell-like traits, including the ability to form mammospheres. See Cano et al., 2000; Yang et al., Cell, 2004; Mani et al., 2008, which are all incorporated herein by reference.
HMLE cells expressing TWIST were plated at 100 cells/0.1 ml in 96-well plates. The cells were cultured in MEGM media supplemented with 20 ng/mL bFGF, 10 ng/mL EGF, 4 ug/mL heparin, and 1% methyl cellulose. Formation of spheres could be seen around day 7. Avicin D/Compound 8 (60 nM) was first added to the cultures on day 7 and subsequently every 7th day. […] See FIGS. 6A-D, which show mammospheres treated with 60 nM of Avicin D or Compound 8 for fourteen days. The ability of these agents to induce cell kill in both the tumor cell population as well as the stem-like cells enhances their potential for use as a cancer therapy.

[4] = test system: Jurkat (human T-cell leukemia) cells; assay: Reduction in cell viability, Jurkat cells (Table 6); assay type: cell-based; conditions: 50% reduction in cell viability
Text: The IC50 values indicate the concentrations of avicin D/compound 8 required to induce a 50% reduction in call viability. These studies were done in Jurkat (human T-cell leukemia) cells and have been described previously in Haridas et al., 2001, which is incorporated herein by reference.

B16F10 = assay: MTT growth inhibition, B16F10; assay type: cell-based, mouse; conditions: B16F10 cells, 72 hrs
Description: as §1, §2

chemotaxis = assay: Inhibition of chemotaxis; assay type: cell-based; conditions: preliminary data
human preadipocytes = conditions: cited from earlier work
Raji = assay: MTT growth inhibition, Raji; assay type: cell-based; conditions: Raji cells, 72 hrs
Description: as §1, §2

RPMI 8226 = assay: MTT growth inhibition, RPMI 8226; assay type: cell-based, human; conditions: RPMI 8226 cells, 72 hrs
Description: as §1, §2

MOLT4 = assay: MTT growth inhibition, MOLT4; assay type: cell-based; conditions: MOLT4 cells, 72 hrs
Description: as §1, §2

ZR751 = assay: MTT growth inhibition, ZR751; assay type: cell-based; conditions: ZR751 cells, 72 hrs
Description: as §1, §2

A549 = assay: MTT growth inhibition, A549; assay type: cell-based, human; conditions: A549 cells, 72 hrs
Description: as §1, §2

HEK293 = assay: MTT growth inhibition, HEK293; assay type: cell-based, human; conditions: HEK293 cells, 72 hrs
Description: as §1, §2

HS27 = assay: MTT growth inhibition, HS27; assay type: cell-based; conditions: HS27 human foreskin fibroblast cells, 72 hrs
Description: as §1, §2

BT474 M1 = assay: MTT growth inhibition, BT474 M1; assay type: cell-based; conditions: BT474 M1 cells, 72 hrs
Description: as §1, §2

Sequence of glucocorticoid receptor (GR) (P04150 whole entry): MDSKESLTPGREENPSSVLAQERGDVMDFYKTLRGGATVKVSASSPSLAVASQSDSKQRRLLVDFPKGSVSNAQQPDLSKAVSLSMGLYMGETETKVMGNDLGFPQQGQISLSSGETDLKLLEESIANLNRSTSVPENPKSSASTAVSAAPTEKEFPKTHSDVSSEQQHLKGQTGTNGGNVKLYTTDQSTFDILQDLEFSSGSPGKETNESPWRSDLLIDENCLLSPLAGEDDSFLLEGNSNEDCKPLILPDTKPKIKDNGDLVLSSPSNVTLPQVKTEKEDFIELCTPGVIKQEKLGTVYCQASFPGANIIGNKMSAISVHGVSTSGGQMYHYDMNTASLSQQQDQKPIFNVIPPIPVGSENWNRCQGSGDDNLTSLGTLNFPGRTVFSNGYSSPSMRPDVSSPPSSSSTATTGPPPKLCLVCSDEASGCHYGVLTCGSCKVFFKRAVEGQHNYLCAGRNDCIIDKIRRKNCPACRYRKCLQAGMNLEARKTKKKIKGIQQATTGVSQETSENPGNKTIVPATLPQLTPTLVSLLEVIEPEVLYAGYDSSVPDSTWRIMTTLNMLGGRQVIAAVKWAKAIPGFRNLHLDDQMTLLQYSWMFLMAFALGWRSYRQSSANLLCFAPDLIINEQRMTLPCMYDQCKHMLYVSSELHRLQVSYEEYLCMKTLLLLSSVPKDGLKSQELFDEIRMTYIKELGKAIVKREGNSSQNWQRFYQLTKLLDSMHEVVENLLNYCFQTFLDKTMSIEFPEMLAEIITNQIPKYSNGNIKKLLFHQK

For `C=C[C@](C)(O)CC/C=C(\CO)C(=O)O[C@H]1[C@H](O)[C@@H](O)[C@H](O[C@@](C)(C=C)CC/C=C(\CO)C(=O)O[C@H]2C[C@]3(C(=O)O[C@@H]4O[C@H](CO)[C@@H](O)[C@H](O)[C@H]4O[C@@H]4O[C@@H](C)[C@H](O[C@@H]5O[C@@H](CO)[C@H](O)[C@H]5O)[C@@H](O[C@@H]5O[C@H](CO)[C@@H](O)[C@H](O)[C@H]5O)[C@H]4O)[C@H](O)C[C@]4(C)C(=CC[C@@H]5[C@@]6(C)CC[C@H](O[C@@H]7O[C@H](CO[C@@H]8O[C@H](C)[C@H](O)[C@H](O)[C@H]8O[C@@H]8OC[C@@H](O)[C@H](O)[C@H]8O)[C@@H](O)[C@H](O)[C@H]7NC(C)=O)C(C)(C)[C@@H]6CC[C@]54C)[C@@H]3CC2(C)C)O[C@@H]1C` [Avicin D], the IC50 (JEKO-1) was 420 nM, the “phosphorylation of Ser-211” value [1] was “does not enhance phosphorylation of Ser-211 even after 16 hours” and the IC50 (MINO) was 420 nM. The IC50 (Jurkat) was 170 nM, the adipogenesis (3T3-L1 cells) was “inhibit adipogenesis” and the intracellular triglyceride level (3T3-L1 cells) was “reduce intracellular triglyceride level in a dose-dependent manner”. It also gave an IC50 (A498) of 440 nM, an IC50 (U266) of 300 nM and an IC50 (SKOV3) of 1000 nM. The “PKA-mediated CREB activity” value [2] was “inhibited PKA-mediated CREB activity”, the IC50 (MM1) was 100 nM and the “expression and secretion of adiponectin” value (adiponectin) was “increased the expression and secretion of adiponectin”. The IC50 (MCF7) was 15200 nM, the IC50 (769P) was 360 nM and the IC50 (CAKI-1) was 1120 nM. For the same compound, the “development of mammospheres as measured by the size of the spheres” value [3] was “appear to inhibit the development of these spheres”, the IC50 [4] was 180 nM and the IC50 (B16F10) was 660 nM. The inhibition of chemotaxis (chemotaxis) was “effective at inhibiting chemotaxis at picomolar and nanomolar concentrations”, the “differentiation of preadipocytes to mature adipocytes” value (human preadipocytes) was “inhibited the differentiation of human preadipocytes to mature adipocytes” and the intracellular triglyceride levels (human preadipocytes) was “reduced intracellular triglyceride levels”. It also gave an IC50 (Raji) of 1270 nM, an IC50 (RPMI 8226) of 300 nM and an IC50 (MOLT4) of 320 nM. For the same compound, the IC50 (ZR751) was 670 nM, the IC50 (A549) was 6900 nM and the IC50 (HEK293) was 6500 nM. It also gave an IC50 (HS27) of 6100 nM and an IC50 (BT474 M1) of 1100 nM.
